Assay results published in PubChem BioAssay AID1963851 (Molecular Pharmacology Branch, DTP, NCI, 2024).

Tested on: 188146-221-R-J1-PDC complex spheroid viability
Test: Anticancer human tumor 188146-221-R-J1-PDC patient-derived colon adenocarcinoma cell line growth inhibition [POLQ]
Settings: for IC50: curve of first compound; for viability, T/C: stronger effect = lower value
Procedure: Multicellular complex tumor spheroid response to Polymerase (POL) inhibitors (novobiocin, ART-558, RP6685) in combination with a variety of drugs and investigational agents in selected tumor cell lines
The POL inhibitors (novobiocin, ART-558, and RP6685) were evaluated both individually and in combination with standard of care and investigational anticancer small molecules within a complex spheroid model of solid tumors. . Complex spheroids include a stromal component modeled by human endothelial cells (HUVEC) and fibroblasts modeled by human mesenchymal stem cells (MSCs). The concentration ranges selected for each drug and investigational agent were based upon clinically achievable concentrations if the clinical Cmax of the agent was known.
Compounds. The drugs and investigational agents: novobiocin (NSC847541), ART-558 (NSC835418), RP-6685 (NSC848927), peposertib (NSC802822), ceralasertib (NSC780249), elimusertib (NSC800525), camonsertib (NSC841442), AZD-1390 (NSC803789), olaparib (NSC753686), talazoparib (NSC767125), rucaparib (NSC756644), sotorasib (NSC818433), MRTX-1133 (NSC836407), SN-38 (NSC673596), topotecan (NSC609699), epotoside (NSC141540), doxorubicin (NSC123127), gemcitabine (NSC613327), 5-fluorouracil (NSC19893), paclitaxel (NSC125973), vemurafenib (NSC761431), MSA-2 (NSC828583), SN-011 (NSC837082), adavosertib (NSC754352), prexasertib (NSC758257), carboplatin (NSC241240) and oxaliplatin (NSC266046), were obtained from the National Cancer Institute (NCI) Developmental Therapeutics Program Chemical Repository (21). The FDA-approved anticancer drug set is available from the Developmental Therapeutics Program at https://dtp.cancer.gov/organization/dscb/obtaining/. […] The stock solutions were prepared in dimethyl sulfoxide (DMSO, Sigma-Aldrich, St. Louis, MO, cat. D2650), except for the platinum compounds which were prepared in saline (Quality Biological, Gaithersburg, MD, cat. 114-055-101), at 800-fold the tested concentration and stored at -70 degrees C prior to their use. All drugs and investigational agents were tested over a range starting from a high concentration at or near the clinical Cmax and decreasing in half-log increments. If the clinical Cmax for an agent had not been determined, the highest concentration tested was 10 microM, except for SN-38, which was tested at a high concentration of 1 microM.
Cell Culture. All cells were maintained in an incubator at 37 degrees C and 5% CO2 with 95% humidity. The PDC lines were cultured according to standard operating procedures established by the NCI PDMR (https://pdmr.cancer.gov). Table 3 of the manuscript, lists the cell lines along with the number of the three cell types plated to form the mct-spheroids and media for tumor cell growth. After thawing, all PDC lines, except 997537-175-T-J1-PDC and 415267-285-R-J2-PDC, were cultured in Matrigel-coated flasks prepared with a working solution of 1X Ham's F-12 nutrient mix, without supplementation (Thermo Fisher Scientific, cat. 11765054), 100 U/mL penicillin-streptomycin (Thermo Fisher Scientific, cat. 15140122), and 2.5% Matrigel (Corning Inc., Corning, NY, cat. 354248) for the first three passages. The two PDC lines 997537-175-T-J1-PDC and 415267-285-R-J2-PDC were cultured on uncoated flasks. The 857933-349-R-J2-PDC line was cultured in 6C/Colon 1B media containing advanced DMEM/F-12 (Thermo Fisher Scientific, cat. 12634028), 10 mM HEPES (Thermo Fisher Scientific, cat. 15630080), 1X GlutaMAX supplement (Thermo Fisher Scientific, cat. 35050061), 0.1 mg/mL primocin (InvivoGen, San Diego, CA, cat. ant-pm-2), 10% defined fetal bovine serum, heat inactivated (HyClone Laboratories Inc., Logan, UT, cat. SH30070.03HI), 50% L-WRN conditioned media (ATCC, cat. CRL-3276), 1.25 mM N-Acetyl-L-cysteine (Sigma-Aldrich, cat. A9165), 10 mM nicotinamide (Sigma-Aldrich, cat. N0636), 1X B-27 supplement (Thermo Fisher Scientific, cat. 17504044), 1X N-2 supplement (Thermo Fisher Scientific, cat. […]

[1] = second compound 0.0316 µM, first compound 0.0316 µM
[2] = second compound 0.0316 µM, first compound 0.1 µM
[3] = second compound 0.0316 µM, first compound 0.316 µM
[4] = second compound 0.0316 µM, first compound 1 µM
[5] = second compound 0.1 µM, first compound 0.0316 µM
[6] = second compound 0.1 µM, first compound 0.1 µM
[7] = second compound 0.1 µM, first compound 0.316 µM
[8] = second compound 0.1 µM, first compound 1 µM
[9] = second compound 0.316 µM, first compound 0.0316 µM
[10] = second compound 0.316 µM, first compound 0.1 µM
[11] = second compound 0.316 µM, first compound 0.316 µM
[12] = second compound 0.316 µM, first compound 1 µM
[13] = second compound 1 µM, first compound 0.0316 µM
[14] = second compound 1 µM, first compound 0.1 µM
[15] = second compound 1 µM, first compound 0.316 µM
[16] = second compound 1 µM, first compound 1 µM
[17] = second compound 3.16 µM, first compound 0.0316 µM
[18] = second compound 3.16 µM, first compound 0.1 µM
[19] = second compound 3.16 µM, first compound 0.316 µM
[20] = second compound 3.16 µM, first compound 1 µM
[21] = second compound 10 µM, first compound 0.0316 µM
[22] = second compound 10 µM, first compound 0.1 µM
[23] = second compound 10 µM, first compound 0.316 µM
[24] = second compound 10 µM, first compound 1 µM
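Note: spheroids exposed to compounds for seven days.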
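Throughout, for viability, T/C: 100% = DMSO vehicle control viability.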

C=CCn1c(=O)c2cnc(Nc3ccc(N4CCN(C)CC4)cc3)nc2n1-c1cccc(C(C)(C)O)n1 + COC1C(OC(N)=O)C(O)C(Oc2ccc3c(O)c(NC(=O)c4ccc(O)c(CC=C(C)C)c4)c(=O)oc3c2C)OC1(C)C
IC50 (second compound 0.0316 µM): > 1 µM
IC50 (second compound 0.1 µM): 0.933 µM
IC50 (second compound 0.316 µM): > 1 µM
IC50 (second compound 1 µM): > 1 µM
IC50 (second compound 3.16 µM): > 1 µM
IC50 (second compound 10 µM): 0.908 µM
viability, T/C (second compound 0.0316 µM, first compound 0.00316 µM): 106%
viability, T/C (second compound 0.0316 µM, first compound 0.01 µM): 99.2%
viability, T/C [1]: 103%
viability, T/C [2]: 101%
viability, T/C [3]: 98%
viability, T/C [4]: 51.5%
viability, T/C (second compound 0.1 µM, first compound 0.00316 µM): 111%
viability, T/C (second compound 0.1 µM, first compound 0.01 µM): 106%
viability, T/C [5]: 101%
viability, T/C [6]: 98%
viability, T/C [7]: 91.5%
viability, T/C [8]: 46.8%
viability, T/C (second compound 0.316 µM, first compound 0.00316 µM): 85.1%
viability, T/C (second compound 0.316 µM, first compound 0.01 µM): 106%
viability, T/C [9]: 96.5%
viability, T/C [10]: 101%
viability, T/C [11]: 97.6%
viability, T/C [12]: 56.3%
viability, T/C (second compound 1 µM, first compound 0.00316 µM): 108%
viability, T/C (second compound 1 µM, first compound 0.01 µM): 100%
viability, T/C [13]: 102%
viability, T/C [14]: 95.9%
viability, T/C [15]: 87.7%
viability, T/C [16]: 55.2%
viability, T/C (second compound 3.16 µM, first compound 0.00316 µM): 102%
viability, T/C (second compound 3.16 µM, first compound 0.01 µM): 98.9%
viability, T/C [17]: 108%
viability, T/C [18]: 98.4%
viability, T/C [19]: 98%
viability, T/C [20]: 56.3%
viability, T/C (second compound 10 µM, first compound 0.00316 µM): 109%
viability, T/C (second compound 10 µM, first compound 0.01 µM): 96.9%
viability, T/C [21]: 100%
viability, T/C [22]: 100%
viability, T/C [23]: 98.1%
viability, T/C [24]: 45.6%

CCCS(=O)(=O)Nc1ccc(F)c(C(=O)c2c[nH]c3ncc(-c4ccc(Cl)cc4)cc23)c1F + COC1C(OC(N)=O)C(O)C(Oc2ccc3c(O)c(NC(=O)c4ccc(O)c(CC=C(C)C)c4)c(=O)oc3c2C)OC1(C)C
IC50 (second compound 0.0316 µM): 5.54 µM
IC50 (second compound 0.1 µM): 5.87 µM
IC50 (second compound 0.316 µM): 4.88 µM
IC50 (second compound 1 µM): 5.62 µM
IC50 (second compound 3.16 µM): 7.78 µM
IC50 (second compound 10 µM): 5.25 µM
viability, T/C [1]: 106%
viability, T/C [2]: 92%
viability, T/C [3]: 77.3%
viability, T/C [4]: 76.3%
viability, T/C (second compound 0.0316 µM, first compound 3.16 µM): 79.8%
viability, T/C (second compound 0.0316 µM, first compound 10 µM): 27.5%
viability, T/C [5]: 110%
viability, T/C [6]: 102%
viability, T/C [7]: 89%
viability, T/C [8]: 89.8%
viability, T/C (second compound 0.1 µM, first compound 3.16 µM): 76.9%
viability, T/C (second compound 0.1 µM, first compound 10 µM): 29.7%
viability, T/C [9]: 100%
viability, T/C [10]: 89.5%
viability, T/C [11]: 94.5%
viability, T/C [12]: 79.7%
viability, T/C (second compound 0.316 µM, first compound 3.16 µM): 65.3%
viability, T/C (second compound 0.316 µM, first compound 10 µM): 26.8%
viability, T/C [13]: 100%
viability, T/C [14]: 96.2%
viability, T/C [15]: 85.4%
viability, T/C [16]: 84.7%
viability, T/C (second compound 1 µM, first compound 3.16 µM): 75.1%
viability, T/C (second compound 1 µM, first compound 10 µM): 27.4%
viability, T/C [17]: 102%
viability, T/C [18]: 103%
viability, T/C [19]: 92.2%
viability, T/C [20]: 72.3%
viability, T/C (second compound 3.16 µM, first compound 3.16 µM): 80.9%
viability, T/C (second compound 3.16 µM, first compound 10 µM): 41.2%
viability, T/C [21]: 102%
viability, T/C [22]: 90.2%
viability, T/C [23]: 96.3%
viability, T/C [24]: 78.2%
viability, T/C (second compound 10 µM, first compound 3.16 µM): 72.7%
viability, T/C (second compound 10 µM, first compound 10 µM): 26%
